row,melting point [°C],Structure (SMILES)
1,150 to 152,COc1cc2c(cc1OC)CC(Nc1ccc(O)cc1)CC2 (stereo not given)
2,146 to 148,COc1cc2c(cc1Br)CC=C2CCNC(C)=O
3,124 to 125,CC(=NNc1ccc(C(F)(F)F)cc1)C(=O)NCc1ccc(Cl)cc1
4,79 to 81,CSc1nncc(-c2cccc(Cl)c2)n1
5,88 to 90,Brc1cccc(-c2csc(Br)n2)c1
6,118 to 120,CC(C)(O)CCOc1c(-c2ccc(S(C)(=O)=O)cc2)cnn(-c2ccc(Cl)c(Cl)c2)c1=O
7,118 to 126,O=C(COc1cc(Cl)c(Cl)c([N+](=O)[O-])c1)c1ccccc1
8,185 to 190,COC(=O)C(=O)CC(=O)c1cc(F)c(OC)c(F)c1
9,167 to 169,CCOC(=O)c1cnn2c1c(NC1CC1)nc1ccccc12
10,185 to 188,Cc1cc2cc(CN3CCCCC3)cnc2cc1NC(=O)c1ccc(-c2ccc(F)cc2)cc1
11,86 to 92,CN(C)CCNc1ccc(Cl)nn1
12,171,C=CCN1CCN(C2=NC3(C=CC(=O)C=C3)C(c3ccccc3)=C2)CC1
13,148 to 149,Cc1oc(-c2ccc(C(F)(F)F)cc2)nc1-c1cccc(-c2ccc(OC(Cc3ccccc3)C(=O)O)cc2)c1 (stereo not given)
14,140 to 142,CN(C)S(=O)(=O)c1ccc(N)cc1C(F)(F)F
15,101 to 102,CNC(=S)N(Cc1cccnc1)N(C)C
16,150,CC(=O)n1ncc(=O)[nH]c1=O
17,146 to 147,CN(Cc1ccccc1)c1cc(-c2nc(=O)c3ccccc3s2)ccn1
18,188 to 190,C=CCC12CC(=O)N(C)C1(O)CCc1ccc(OCc3ccccc3)cc12 (stereo not given)
19,243 to 244,O=C(O)c1oc(=O)c2cc(Cl)c(Cl)cc2c1-c1ccccc1
20,141 to 142,OCc1cn(-c2ccccc2)nc1-c1ccc(Cl)cc1
21,64,C#CCn1c(C(F)(F)F)c(CO)oc1=O
22,130,Cc1ccc(C(=O)OCC2OC(n3cc(C#C[Si](C)(C)C)c(=O)[nH]c3=O)CC2F)cc1 (stereo not given)
23,199 to 202,N#Cc1ccc(-c2ccc(OCC(CN3C(=O)c4ccccc4C3=O)N(O)C=O)cc2)cc1 (stereo not given)
24,72 to 75,COC(=O)c1cc2c(n(Cc3ccc(C#N)cc3)c1=O)CCCCCC2
25,136,CCCc1c(OCCCOc2ccc(Br)cc2)ccc2c1OC(CCC(=O)O)(CCC(=O)O)CC2=O

row,melting point [°C],Structure (SMILES)
1,140 to 142,O=C(O)c1ccccc1-c1ccc(CO)cc1
2,186 to 188,CCNC(=O)Nc1ccc(N(C)C)cc1C(=O)NCC1CCN(C(c2ccccc2)c2ccccc2)CC1
3,225 to 228,O[C@H]1CC[C@H](Nc2nccc(-n3nnc4ccccc43)n2)CC1
4,103 to 104,Cc1ccc2c(c1)CC(=O)c1cc(F)ccc1S2
5,127 to 128,CC(C)(C)OC(=O)NS(=O)(=O)c1ccc(Br)cc1
6,72 to 73,OC(CCN1CCN(c2ccccn2)CC1)COc1ccc(F)cc1 (stereo not given)
7,99 to 101,COC(=O)CSc1c(C)cc(C(O)(C(F)(F)F)C(F)(F)F)cc1C
8,76 to 77,OCCOc1ccc(I)cc1
9,150 to 153,CCN1c2ccc(C)cc2C2CN(CCCC(=O)c3ccc(F)cc3)CCC21 (stereo not given)
10,243 to 247,COC(=O)c1cnn(C)c1C(=O)Nc1ccn2nc(-c3ccccc3)nc2c1
11,169 to 172,Fc1ccc2nc(-c3ccc(Cl)cc3)cc(Cl)c2c1
12,108 to 109,CC1(C)CC(=O)c2ccc(C#Cc3cccnc3)nc2C1
13,160 to 162,COc1ccc(-c2nc(C(N)=O)sc2-c2ccc(OC)cc2)cc1
14,176 to 178,O=C1CCC(N2Cc3c(OCc4ccc(CN5CCN(CC6CC6)CC5)cc4)cccc3C2=O)C(=O)N1 (stereo not given)
15,150 to 151,Cc1ccccc1-c1nc(-c2ccc(Cl)cc2)n[nH]1
16,87.5 to 89,COc1ccc(CCN2CCCC(CO)C2)cc1OC (stereo not given)
17,114 to 115,CCN(C(=O)c1ccc(CCSn2cnc3ccccc32)cc1)C1CCCCC1
18,201 to 204,N#Cc1ccc(N(Cc2ccc(OS(N)(=O)=O)c(Cl)c2)n2cnnc2)cc1-c1ccccc1
19,105 to 110,CCCCc1oc2ccccc2c1C(=O)N(Cc1ccccc1)Cc1ccc2c(Br)c(OCC#N)ccc2c1
20,117 to 118,CCOC(=O)c1cccc(Oc2ncccc2O)c1
21,96 to 98,O=[N+]([O-])c1c(OCc2ccccc2)ccnc1F
22,192,CS(=O)(=O)c1ccc(-c2ccc(Cl)nc2-c2ccc(F)cc2)cc1
23,149 to 151,CC(C)n1nc(-c2sc(NC3CCCCC3)nc2-c2ccccc2)ccc1=O
24,144 to 146,Fc1ccc(C(C(Br)c2ccccc2)C(F)(F)F)cc1 (stereo not given)
25,137 to 139,CCOC(=O)N1CCN(C2=Nc3ccccc3Cc3nccn32)CC1

row,melting point [°C],Structure (SMILES)
1,46 to 48,CSc1nc(OC(F)F)cc(OC(F)F)n1
2,55 to 90,CC(=O)Oc1cc(S(=O)(=O)Oc2ccc(C(=O)c3c(Cc4ccccc4)oc(C)c3C)cc2C2CCCC2)ccc1C(=O)O
3,148 to 161,Cc1noc2cc(OC3SCC(O)C(O)C3O)ccc12 (stereo not given)
4,122 to 124,CN(C)C(=S)SC(C[N+](=O)[O-])c1ccc2c(c1)OCO2 (stereo not given)
5,60 to 63,COC(=O)c1cccc2nc(SCCN3CCN(CC(=O)Nc4c(SC(C)C)cc(C)nc4SC(C)C)CC3)oc12
6,186 to 187,C=Cn1cc(C(=O)O)c(=O)c2cc(F)c(F)c(F)c21
7,195 to 197,Cn1nc(S(=O)(=O)c2ccccc2)c2cc(N3CCN(Cc4ccccc4)CC3)ccc21
8,155,CC(O)C#CC1(C)C=CN=C(N)N1 (stereo not given)
9,260,O=C1N=NC(=O)c2c1[nH]c1cc(Br)ccc21
10,197 to 198,O=C(O)CC1CCCc2c1n(Cc1ccccc1Cl)c1c(F)cc(F)cc21 (stereo not given)
11,203 to 204,CSc1ccc2nc[nH]c(=O)c2c1
12,124 to 126,CCCOc1ccc(OC)cc1-c1ncc(C(=O)OCC)c(=O)[nH]1
13,110,CSc1ccc(C(=O)NC[C@H]2O[C@@H]2c2ccccc2)cc1 (racemic)
14,252 to 254,CNCC1CN(c2c(F)cc3c(=O)c(C(=O)O)cn(C4CC4)c3c2F)CC1C (stereo not given)
15,88.4 to 89.4,ClCc1cccc2c(C3CCCCC3)nccc12
16,112 to 114,Cc1nc(CC(N)=O)no1
17,55 to 57,CCc1cccc(Nc2nc(NCc3ccc(C)o3)nc(OCC(F)(F)F)n2)c1
18,243 to 244,O=C(O)c1ccc2cc(OCCC(c3ccccc3)(c3ccccc3)c3ccccc3)ccc2c1
19,109 to 111,CCCCCCCNC(=O)Nc1ccccc1C(=O)NCCCC1CCN(C(c2ccccc2)c2ccccc2)C1 (stereo not given)
20,308 to 310,Nc1nc2c(ncn2Cc2ccoc2)c(=O)[nH]1
21,208 to 210,CC(C)(C(=O)O)c1ccc2cc(O)ccc2c1
22,101 to 103,CC(=O)C(=Cc1ccccc1)c1ccncc1
23,138 to 139,COc1ncc(C2OC(CO)C(O)C2O)c(OC)n1 (stereo not given)
24,< 52,CCOC(CSc1ccc2c(c1)CCN2C(C)=O)OCC
25,135 to 140,CC(Cn1ccnc1)OCC(O)(P(=O)(O)O)P(=O)(O)O (stereo not given)

row,melting point [°C],Structure (SMILES)
1,132 to 134,O=C(O)Cc1ccc2c(c1)C(O)c1ccccc1CO2 (stereo not given)
2,107 to 108,CC(C)C(=O)CNC(=O)c1ccc(F)cc1
3,195 to 196,CC(C)CC(CO)NC(=O)c1ccccc1SSc1ccccc1C(=O)NC(CO)CC(C)C (stereo not given)
4,> 260,O=C(O)Cc1cc(C=Cc2ccc(C(=O)O)cc2)ccc1O
5,113 to 114,CNC(=C[N+](=O)[O-])NCCSCc1cc2ccc(CN(C)C)cc2o1
6,154 to 155,CCOC1=C(N(C(C)=O)C(C)C)C(=O)c2cnn(C)c2C1=O
7,135 to 136,CCCCC(=N)Nc1ccccc1N1CCOCC1
8,169 to 170,CN(C)S(=O)(=O)c1cc([N+](=O)[O-])c(N)c([N+](=O)[O-])c1
9,146 to 148,CC12CCC(C1)C1(C)Oc3ccc(C(O)c4ccc5cc(C(=O)O)ccc5c4)cc3C21C (stereo not given)
10,93 to 94.5,ClC(=NNc1c(Cl)cc(Cl)cc1Cl)c1ccccc1
11,154 to 161,Cc1cc(Oc2ncc(C(F)(F)F)cc2Cl)ccc1N=C=O
12,138 to 139,OC(CNCc1ccccc1)c1cc(C(F)(F)F)nc2c(C(F)(F)F)cccc12 (stereo not given)
13,121 to 123,COc1ccc(Cl)cc1C(O)C(N)=O (stereo not given)
14,148 to 149,COc1cccc(/C=C/C(=O)Nc2cccc(NC(=N)c3ccccc3)c2)c1
15,66 to 68,CC1(C)Cc2ccccc2CC(C)(C)C1O
16,> 240,O=c1ccc(S(=O)(=O)c2oc3ccc(Cl)cc3c2O)n[nH]1
17,59,C#CCn1c(C(F)(F)F)cc2ccccc21
18,139 to 141,CS(=O)CCC(=O)Nc1ccc(OCC(O)CO)cc1 (stereo not given)
19,101 to 103,COC(=O)CCC(C(=O)c1cccc(O)c1)c1ccccc1C (racemic)
20,136 to 138,CNC(=O)C(O)C1=CC2(CCCC2)c2ccccc21 (stereo not given)
21,152 to 153,O=C1C(=Cc2ccc(Br)cc2)CCc2cc(OCCn3ccnc3)ccc21
22,264 to 266,O=C(Nc1nnn[nH]1)c1ccccc1O
23,279 to 281,Cc1nc2nn(-c3ccccc3)c(N)c2c(=O)[nH]1
24,229 to 242,CSc1ccc2nc(N)c(C(N)=O)cc2c1
25,155 to 157,O=C(c1ccccc1)c1cc(Cl)cc2c1OCC2C(=O)O (stereo not given)

row,Structure (SMILES),melting point [°C]
1,COc1ccc(C(CN(C)C)c2nnc3n2-c2ccc(Cl)cc2C(c2ccccc2)=NC3)cc1 (stereo not given),138 to 142
2,Cc1cccc2c1C(=O)N(C)Cc1c(-c3noc(C4CC4)n3)ncn1-2,200
3,NC(=S)N(c1ccsc1-c1nc(C2CC2)no1)C1CN2CCC1CC2 (stereo not given),155 to 157
4,CCCc1nc2cc(C)c(NC(=O)c3cc(C(F)(F)F)nn3-c3ncccc3Cl)c(C(=O)NC(C)C)c2cc1CC,213 to 220
5,C=CC1(O)CCC2C3CCC4=CC(=O)CCC4C3CCC21CC (stereo not given),108 to 111

# From a melting point compilation (Tetko et al.; mined from patent text by program, amines drawn as free bases though some values may be those of a salt)
